# Key:
# Format in all cases: cell-based
# [1] = test system: A549 (human lung cancer) cells; experiment: MTT cytotoxicity assay, A549; details: 72 h, 3 days, read-out: Means of IC50
# Procedure: Pomiferin is dissolved in DMSO at a final concentration of 100 mmol/L and stored at −20° C. Cytotoxicity is assessed using the 3-(4,5-dimethylthiazol-2-yl)-2,5-diphenyltetrazolium bromide assay. 4000-8000 HeLa (human cervical cancer), MCF-7 (human breast cancer), HepG2 and Hep3B (human liver cancer), H1299 and A549 (human lung cancer), LNCap (human prostate cancer) and LLC-1 (mouse Lewis lung carcinoma) cells are seeded on 96-well plates per well. After overnight pre-incubation, the cells are exposed to different concentrations of pomiferin ([…]) for 3 days. Subsequently, 10 μL of MTT reagents is added to each well and incubated at 37° C. for 4 hours followed by the addition of 100 μL solubilization buffer (10% SDS in 0.01 mol/L HCl) and overnight incubation. Absorbance at 585 nm is determined from each well the next day. The percentage of cell viability is calculated using the following formula: Cell viability (%)=Cells number treated/Cells number DMSO control×100. Data are obtained from three independent experiments.
# [2] = test system: caspase wild-type (caspase WT) mouse embryonic fibroblasts; experiment: MTT cytotoxicity assay, caspase WT MEFs; details: Fibroblast, 72 h, 3 days, read-out: Means of IC50
# Procedure: (§1) The test compound of pomiferin is dissolved in DMSO at a final concentration of 100 mmol/L and stored at −20° C. Cytotoxicity is assessed using the 3-(4,5-dimethylthiazol-2-yl)-2,5-diphenyltetrazolium bromide assay as previously described^29. 2500 of caspase wild-type (caspase WT), caspase-3 deficient (caspase 3KO), caspase-7 deficient (caspase 7KO), caspase-3/-7 deficient (caspase 3/7 DKO), caspase-8 deficient (caspase 8KO), Bax-Bak wild-type (Bak-Bak WT) and Bax-Bak double knock out (Bak-Bak DKO) mouse embryonic fibroblasts (MEFs) are seeded on 96-well plates per well. After overnight pre-incubation, the cells are exposed to different concentrations of pomiferin (namely 100, 50, 25, 12.5, 6.25, 3.125, 1.5625, 0.78, 0.39, 0.195, 0.079, 0.039 μmol/L) for 3 days. Subsequently, 10 μL of MTT reagents is added to each well and incubated at 37° C. for 4 hours, followed by the addition of 100 μL solubilization buffer (10% SDS in 0.01 mol/L HCl) and overnight incubation. Absorbance at 585 nm is determined from each well on the following day. The percentage of cell viability is calculated using the following formula: Cell viability (%)=Cells numbertreated/Cells numberDMSO control×100. Data is obtained from three independent experiments.
# [3] = test system: caspase-3/-7 deficient (caspase 3/7 DKO) mouse embryonic fibroblasts; experiment: MTT cytotoxicity assay, caspase 3/7 DKO MEFs; details: Fibroblast, 72 h, 3 days, read-out: Means of IC50
# Procedure: as §1
# [4] = test system: HCT-116 p53+/+ isogenic colon cancer cells; experiment: MTT cytotoxicity assay, HCT116 p53+/+; details: Homo sapiens, HCT-116, 72 h, HCT116 p53+/+ (wild-type), 3 days, read-out: Means of IC50
# Procedure: as §1, with “4000” for “2500”, “drug-resistant HCT-116 p53+/+, HCT-116 p53−/−” for “caspase wild-type (caspase WT), caspase-3 deficient (caspase 3KO), caspase-7 deficient (caspase 7KO), caspase-3/-7 deficient (caspase 3/7 DKO), caspase-8 deficient (caspase 8KO), Bax-Bak wild-type (Bak-Bak WT)”, “HCT-116 p53−/− isogenic colon cancer cells” for “Bax-Bak double knock out (Bak-Bak DKO) mouse embryonic fibroblasts (MEFs)”, “[…])” for “μmol/L)”
structure (smiles),measurement,setting,value
CC(C)=CCc1c2c(c3occ(-c4ccc(O)c(O)c4)c(=O)c3c1O)C=CC(C)(C)O2 [pomiferin],IC50,[1],20.3 µM
same,IC50,[2],7.63 µM
same,IC50,[3],2.21 µM
same,IC50,[4],6.51 µM

# From patent US20170014375A1, “PHARMACEUTICAL COMPOSITION COMPRISING EFFECTIVE DOSE OF POMIFERIN FOR TREATING CANCERS” (Macau University of Science and Technology, priority 2015, published 2017)
